Values joined by “and” are separate entries in the source; they are usually repeats but may differ in a detail not shown here. Identical values can stand only once. Like-named read-outs stand apart in the source and are kept apart here.
Assays:
MjTyrRS variants [1] = target: T1, MjTyrRS variants (Methanocaldococcus jannaschii, UniProt Q57834, D158A/F108Q/H70G/L162N/L65E/Q109C/Y32G); experiment: Intact cell fluorescence assay of HYs incorporation into SUMO-sfGFP; type: cell-based; settings: Synthetase B48RS
T1 construct: expressed in transfected cells
Description: (§1) The intact cell fluorescence assay was performed to approximately compare the Br2Y and Cl2Y incorporation efficiency of screened MjTyrRSs as well as to estimate their promiscuity against other Tyr analogues. Since the gene expression of SUMO-sfGFP was driven by T5 promoter on the one round positive selection plasmid, SUMO-sfGFP can be directly expressed in DH10b strain. […] Next day, an overnight culture was inoculated in a well at a ratio of 1:100 containing 300 μL TB medium supplemented with 50 μg/mL Kan,100 μg/mL Amp, 0.5 mM IPTG as well as 1 mM HYs while the corresponding control lacked the HYs. Cells were grown in 96 well plates (Ibidi) with orbital shaking (2 mm amplitude) for 24 h at 37 °C covered with a gas-permeable foil (Sigma Aldrich, Taufkirchen, Germany). […] After 24 h incubation, the optimal density and fluorescence was measured via top reading after the gas-permeable foil was removed. Each measurement was done in triplicate.

MjTyrRS variants [2] = target: T2, MjTyrRS variants (Methanocaldococcus jannaschii, UniProt Q57834, D158A/F108N/H70G/L162C/L65E/Y32V); experiment: as above; type: cell-based; settings: Synthetase C64RS
T2 construct: expressed in transfected cells
Description: as §1

MjTyrRS variants [3] = experiment: as above; type: cell-based, Methanocaldococcus jannaschii
Description: as §1

[4] = Side-chain acidity: pKa by 1H NMR titration of free amino acids; type: physicochemical; settings: for pKa: aqueous KH2PO4 solution titrated with sodium hydroxide
Description: 10–20 mg of an amino acid, 50 mg of KH2PO4 was dissolved in 15 ml of water and titrated by sodium hydroxide solution to distinct pH values. 500 μl were taken to NMR tubes, 50 μl deuterium oxidewas added and ^1H NMR spectra were measured using W5 pulse tray water suppression at 500 MHz frequency. The chemical shifts were plotted against pH and analyzed using Henderson-Hasselbalch equation to deliver the pKa values. Experimental error ±0.15.

FtsZ-YFP-mts [5] = target: T3, FtsZ-YFP-mts (Escherichia coli, UniProt P0A9A6); type: biochemical; set-up: made in house; host or cells: E. coli BL21(DE3) for the wild type; settings: 5 μM protein, 1 mM GTP; for GTPase activity, Average: average of two repeats; for GTPase activity, single repeats: repeat 1 and repeat 2
Description: Reactions were performed every 20 s for a total time of 120 s. After 30 min of incubation with BIOMOL® GREEN at room temperature, the absorbance of the samples at 620 nm was monitored by TECAN plate reader. The phosphate release concentrations were calculated based on a phosphate standard curve.

[6] = target: the molecule itself; experiment: dynamic light scattering; 12.5 µM FtsZ in SLB buffer (50 mM Tris-HCl pH 7.5, 150 mM KCl), 25 °C, 90° light scattering; polymerisation started by adding 4 mM GTP, followed for at least 70 min
FtsZ-YFP-mts [7] = target: T3, FtsZ-YFP-mts; settings: on SLB; n = 6
Description: (§2) Fluorescence recovery after photobleaching data (FRAP) on the SLB were evaluated by choosing two separately circle areas (r = 4 µm). One circle was taken as a reference. Another one was photobleached by 20 iterations of 488 nm, laser under 100% laser power. Their fluorescence recovery in the green channel was monitored. Intensity traces were collected using Fiji, corrected for photobleaching and normalized with the pre-bleaching intensity and the reference intensity. The fluorescence recovery curves were then fitted with mono-exponential equation using Originpro (v_2017 & v_2019):1 Y=Ae^−kt+B, where Y represents fluorescence intensity at time t, A and B are parameters, and k represents the rate constant. The half-life, t1/2, was determined using the following equation:2 t1/2=ln2k^−1

FtsZ-YFP-mts [8] = settings: FRAP
Description: as §2

FtsZ-YFP-mts [9] = target: T3, FtsZ-YFP-mts; settings: on SLB; slope of kymographs
Description: (§3) Images corresponded to an average of 5–10 frames from a time-series experiment. For the kymograph analysis, time-series acquisitions were filtered using a standard mean filter (2 pixel) and were drift corrected (multistackreg plugin). A MATLAB script allowed the user to define a ring by providing two coordinates. Every ring was automatically fitted to a circle with radius r. Then, three trajectories corresponding to three concentric circles having radii r, r + 1, and r − 1 pixels were determined. At this point, the script read the time-series data and calculated a kymograph for each time point and trajectory. To automatically calculate the slope, the kymograph was smoothed with a Savitzky-Golay filter of order 2 and enhance its contrast using a contrast-limited-adaptive-histogram-equalization (CLAHE) routine (MATLAB). Next, using Fourier analysis from previous study, the characteristic frequency for the patterns on the kymograph was found. Finally, the slope corresponded to the change in phase at this frequency. Quality criteria were properly chosen to reject low-quality regions over the kymograph. To synchronize time-lapse acquisitions, the initial frame (time 0) was defined when surface mean intensity was around 200 A.U.

FtsZ-YFP-mts [10] = settings: on SLB; mean ± SD
Description: as §3

FtsZ-YFP-mts [11] = target: T3, FtsZ-YFP-mts; settings: total protein 0.5 µM
Description: The final volume of a sample was approximately 250 μl. […] Polymerization was induced by adding 4 mM GTP.

FtsZ-YFP-mts [12] = target: T3, FtsZ-YFP-mts; set-up: made in house; host or cells: E. coli BL21(DE3) for the wild type; settings: 0.5 μM protein, 4 mM GTP
Description: 1,2-dioleoyl-sn-glycero-3-phosphocholine (DOPC):1,2-dioleoyl-sn-glycero-3-phospho-(1’-rac-glycerol) (DOPG), 70:30 mol % mixture, was dissolved in chloroform in a quartz container, then dehumidified under a gas nitrogen stream. Chloroform traces were further removed through desiccation (1 h). Afterwards, the lipid film was hydrated to a final concentration of 4 mg/ml in supported lipid bilayers (SLB) buffer (50 mM Tris-HCl at pH 7.5, 150 mM KCl), and incubated at 37 °C for 30 min. The lipid film was then completely resuspended by vortexing rigorously to obtain multilamellar vesicles of different sizes. This mixture was then placed in a bath sonicator where shear forces help to reduce the size of the vesicles, giving rise to small unilamellar vesicles (SUVs). The SUV dispersion were stored at −20 °C as 20 µl aliquots.
Glass coverslips (1.5#, 24 x 24 mm) were cleaned by piranha solution overnight, followed by extensive washing with milliQ H2O. Then glass coverslips were blown dry with compressed air. The reaction chamber was prepared by attaching a plastic ring on a cleaned glass coverslip using ultraviolet glue (Thorlabs No. 68). For supported lipid bilayer formation, the SUV dispersion was diluted in SLB buffer to 0.5 mg/ml, of which 75 µl was added to the reaction chamber. Adding CaCl2 to a final concentration of 3 mM induced fusion of the vesicles and the formation of a lipid bilayer on coversilde. After 20 min of incubation at 37 °C, the sample was rinsed with 2 ml pre-warmed SLB buffer.
Polymerization was induced by adding 4 mM GTP.
The UltimateFocus feature of DeltaVision Elite maintains the focus plane constant in time. […] Fluorescence imaging was performed using a standard FITC filter set. Images were acquired with a PCO sCMOS 5.5 camera (PCO, Germany) controlled by the softWoRx Software (GE Healthcare Life Sciences, Germany). For time-lapse experiments, images were acquired every 3 s with a 0.05 s exposure time and light illumination shuttered between acquisitions.

[13] = experimental error ±0.15, read-out: Ammonium pKa
[14] = experimental error ±0.15, read-out: pKa of the phenolic side-chain

T2 sequence (Q57834 whole entry Y32V/L65E/H70G/F108N/D158A/L162C): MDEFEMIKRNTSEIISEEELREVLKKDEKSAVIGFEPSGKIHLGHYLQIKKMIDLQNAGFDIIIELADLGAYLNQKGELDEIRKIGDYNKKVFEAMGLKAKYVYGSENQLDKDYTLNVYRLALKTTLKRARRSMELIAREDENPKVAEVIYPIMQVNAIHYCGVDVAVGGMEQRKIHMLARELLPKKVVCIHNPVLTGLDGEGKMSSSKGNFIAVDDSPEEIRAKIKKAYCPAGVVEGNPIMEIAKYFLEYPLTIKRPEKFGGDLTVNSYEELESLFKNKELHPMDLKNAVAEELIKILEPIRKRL
T1 sequence (Q57834 whole entry Y32G/L65E/H70G/F108Q/Q109C/D158A/L162N): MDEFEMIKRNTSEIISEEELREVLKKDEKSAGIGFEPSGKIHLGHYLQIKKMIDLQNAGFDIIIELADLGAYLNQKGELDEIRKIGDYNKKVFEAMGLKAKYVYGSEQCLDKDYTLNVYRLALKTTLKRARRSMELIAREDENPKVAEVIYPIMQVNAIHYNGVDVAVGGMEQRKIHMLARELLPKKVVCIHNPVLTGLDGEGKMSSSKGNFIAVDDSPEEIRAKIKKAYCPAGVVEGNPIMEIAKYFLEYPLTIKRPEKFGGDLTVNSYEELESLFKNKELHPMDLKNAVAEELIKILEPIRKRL

Molecule: N[C@@H](Cc1cc(I)c(O)c(I)c1)C(=O)O [I2Y, 3,5-diiodo-L-tyrosine]
- Fluorescence Instensity (MjTyrRS variants [1]): 0.00608 a.u. and 0.00634 a.u. and 0.00611 a.u.
- Fluorescence Instensity (MjTyrRS variants [2]): 0.1172 a.u. and 0.1504 a.u. and 0.08392 a.u.
- Fluorescence Instensity (MjTyrRS variants [3]; Synthetase B4RS): 0.01117 a.u. and 0.01123 a.u. and 0.01112 a.u.
- Fluorescence Instensity (MjTyrRS variants [3]; Synthetase B12RS): 0.07137 a.u. and 0.08741 a.u. and 0.05734 a.u.
- Fluorescence Instensity (MjTyrRS variants [3]; Synthetase B37RS): 0.1118 a.u. and 0.1372 a.u. and 0.08534 a.u.
- Fluorescence Instensity (MjTyrRS variants [3]; Synthetase B39RS): 0.1743 a.u. and 0.1958 a.u. and 0.1504 a.u.
- Fluorescence Instensity (MjTyrRS variants [3]; Synthetase C45RS): 0.07608 a.u. and 0.1006 a.u. and 0.05086 a.u.
- pKa [4, 13]: 9.38
- pKa [4, 14]: 6.5
- pKa of the phenolic side-chain ([4]; experimental error ±0.15): 6.45
- GTPase activity, Average (FtsZ-YFP-mts [5]): 1.222 pi/min
- GTPase activity, single repeats (FtsZ-YFP-mts [5]): 1.132 pi/min and 1.3119 pi/min

Molecule: N[C@@H](Cc1ccc(O)c(I)c1)C(=O)O [IY, 3-iodo-L-tyrosine]
- Fluorescence Instensity (MjTyrRS variants [1]): 0.5153 a.u. and 0.5773 a.u. and 0.4545 a.u.
- Fluorescence Instensity (MjTyrRS variants [2]): 0.4349 a.u. and 0.5128 a.u. and 0.3571 a.u.
- Fluorescence Instensity (MjTyrRS variants [3]; Synthetase B12RS): 0.5049 a.u. and 0.5603 a.u. and 0.4548 a.u.
- Fluorescence Instensity (MjTyrRS variants [3]; Synthetase B37RS): 0.268 a.u. and 0.305 a.u. and 0.2304 a.u.
- Fluorescence Instensity (MjTyrRS variants [3]; Synthetase B39RS): 0.1745 a.u. and 0.1928 a.u. and 0.1452 a.u.
- Fluorescence Instensity (MjTyrRS variants [3]; Synthetase C5RS): 0.6274 a.u. and 0.698 a.u. and 0.5495 a.u.
- Fluorescence Instensity (MjTyrRS variants [3]; Synthetase C45RS): 0.7321 a.u. and 0.8284 a.u. and 0.6034 a.u.
- Fluorescence Instensity (MjTyrRS variants [3]; Synthetase C61RS): 0.5143 a.u. and 0.5653 a.u. and 0.452 a.u.
- pKa [4, 13]: 9.37
- pKa [4, 14]: 8.3
- GTPase activity, single repeats (FtsZ-YFP-mts [5]): 1.6686 pi/min and 1.8578 pi/min

B1: wild type FtsZ-YFP-mts (domain or fragment, UniProt P0A9A6 1-366, looked up)
chain: MFEPMELTNDAVIKVIGVGGGGGNAVEHMVRERIEGVEFFAVNTDAQALRKTAVGQTIQIGSGITKGLGAGANPEVGRNAADEDRDALRAALEGADMVFIAAGMGGGTGTGAAPVVAEVAKDLGILTVAVVTKPFNFEGKKRMAFAEQGITELSKHVDSLITIPNDKLLKVLGRGISLLDAFGAANDVLKGAVQGIAELITRPGLMNVDFADVRTVMSEMGYAMMGSGVASGEDRAEEAAEMAISSPLLEDIDLSGARGVLVNITAGFDLRLDEFETVGNTIRAFASDNATVVIGTSLDPDMNDELRVTVVATGIGMDKRPEITLVTNKQVQQPVMDRYQQHGMAPLTQEQKPVAKVVNDNAPQTA
notes: FtsZ, prokaryotic cell-division protein (ftsZ gene product), truncated to residues 1-366; also called FtsZ chimera; FtsZ(1-366) fused with YFP and mts; source: E. coli BL21(DE3), pET-11b, purified (ammonium sulphate precipitation, anion exchange Q-Sepharose)
- binding result [6]: binds

B2: Wild type FtsZ-YFP-mts: truncated FtsZ(1-366) fused with yellow fluorescent protein (YFP) and a membrane-targeting sequence (mts) (protein)
chain: MFEPMELTNDAVIKVIGVGGGGGNAVEHMVRERIEGVEFFAVNTDAQALRKTAVGQTIQIGSGITKGLGAGANPEVGRNAADEDRDALRAALEGADMVFIAAGMGGGTGTGAAPVVAEVAKDLGILTVAVVTKPFNFEGKKRMAFAEQGITELSKHVDSLITIPNDKLLKVLGRGISLLDAFGAANDVLKGAVQGIAELITRPGLMNVDFADVRTVMSEMGYAMMGSGVASGEDRAEEAAEMAISSPLLEDIDLSGARGVLVNITAGFDLRLDEFETVGNTIRAFASDNATVVIGTSLDPDMNDELRVTVVATGIGMDKRPEITLVTNKQVQQPVMDRYQQHGMAPLTQEQKPVAKVVNDNAPQTA
modifications: left off: YFP, end not stated, kept | mts (membrane-targeting sequence), end not stated, kept
- FRAP half-time (FtsZ-YFP-mts [7]): 4.97 ± 0.24 s
- half time, ave (FtsZ-YFP-mts [8]; average of the three measurements (stdev in the row below), Fig. 2h): 4.974 s
- half time (FtsZ-YFP-mts [8]; individual measurements, source data of Fig. 2h): 4.866 s and 5.251 s and 4.806 s
- Mean rotation (treadmilling) velocity (FtsZ-YFP-mts [9]): 21.63 ± 5.11 nm/s
- Treadmilling velocity (FtsZ-YFP-mts [10]): 21.63 ± 5.11 nm/s
- Ring density, Average (FtsZ-YFP-mts [11]; average of three repeats): 144248 µm−2
- Ring density, single repeats (FtsZ-YFP-mts [11]; repeats 1-3, listed as 0 Cl2Y): 133565 µm−2 and 142057 µm−2 and 157123 µm−2
- Ring density (FtsZ-YFP-mts [11]; stated percentage of Cl2Y modified variant): 1.44 (±0.12) × 10^5 µm^−2
- GTPase activity, Average (FtsZ-YFP-mts [5]): 7.3492 pi/min
- GTPase activity, single repeats (FtsZ-YFP-mts [5]): 7.7984 pi/min and 6.9 pi/min
- Phosphate at Time 0.3 min (FtsZ-YFP-mts [5]; time 0.3 min, repeats 1 and 2): 6.378 µM and 10.2373 µM
- Phosphate at Time 0.7 min (FtsZ-YFP-mts [5]; time 0.7 min, repeats 1 and 2): 8.111 µM
- Phosphate at Time 1 min (FtsZ-YFP-mts [5]; time 1 min, repeats 1 and 2): 13.7966 µM and 9.644 µM
- Phosphate at Time 2 min (FtsZ-YFP-mts [5]; time 2 min, repeats 1 and 2): 19.8222 µM and 22.4068 µM
- Ring pattern formation on supported lipid bilayer (FtsZ-YFP-mts [12]; TIRFM): homogeneous treadmilling ring pattern
- Average ring diameter (FtsZ-YFP-mts [12]; on SLB, mean ± SD): 0.80 ± 0.18 μm
